From patent US20160166536A1, “COMBINATION THERAPY FOR THE TREATMENT OF CANCER” (NORTHWESTERN UNIVERSITY, priority 2014, published 2016) come the findings set out here.

Structures are written as SMILES.

What all share (format): cell-based
In one experiment the test system is HS-578T cells. Description: MTS proliferation assay, HS-578T cells on TCPS. The conditions noted are these: 300 nM CYC065 alone, 5 nM Eribulin alone or their combination, 48 h, FIG. 2B. The procedure: (§1) The ability of a composition including Eribulin and CYC065 to inhibit inhibiting tumor cell proliferation of triple-negative breast cancer cells was evaluated in three different cell lines having the triple-negative phenotype: MDA-MB-231 (FIG. 2A), […] (FIG. 2B) and MDA-MB-436 (FIG. 2C). The cells were seeded on tissue culture plates and cultured for ˜18 h. The cells were then contacted with 300 nM CYC065 alone, 5 nM Eribulin alone or a combination of 300 nM CYC065 and 5 nM Eribulin for 48 h.
(§2) MDA-MB-231, HS-578T and MDA-MB-436 cells lines were seeded on TCPS at 5000 cells/well and cultured for ˜18 h. They were then treated with 300 nM CYC065 and 5 nM Eribulin or their combination for 48 h. Proliferation was quantified using the MTS assay. […] (N≧4 for all groups.) Data was analyzed using one-way ANOVA and comparison between groups post ANOVA was performed using Tukey HSD test.

A further experiment deals with MDA-MB-436 cells. The experiment is described as follows: MTS proliferation assay, MDA-MB-436 cells on TCPS. To be noted: 300 nM CYC065 alone, 5 nM Eribulin alone or their combination, 48 h, FIG. 2C. As for the experimental part:
as §1, §2

Another experiment has as its system MDA-MB-231 cells. The experiment is described as follows: MTS proliferation assay, MDA-MB-231 cells on tissue culture plates (2D TCPS). To be noted: 48 h. The procedure:
To evaluate the effectiveness of Eribulin and CYC065 in inhibiting tumor cell proliferation of triple-negative breast cancer cells, the breast cancer cell line MDA-MB-231 having the triple-negative phenotype was tested. MDA-MB-231 cells were seeded on tissue culture plates and cultured for ˜18 h. Cells were treated with different doses of either drug [Eribulin (0.1 nM-100 nM); CYC065 (50 nM-1000 nM)] for 48 h. Proliferation was quantified using the MTS assay.
as §1
MDA-MB-231 cells were seeded on 2D TCPS at 5000 cells/well and cultured for ˜18 h. […] Proliferation was quantified using the MTS assay.
MDA-MB-231, HS-578T and MDA-MB-436 cells lines were seeded on TCPS at 5000 cells/well and cultured for ˜18 h. […] Proliferation was quantified using the MTS assay. […] (N≧4 for all groups.) Data was analyzed using one-way ANOVA and comparison between groups post ANOVA was performed using Tukey HSD test.
(In general: Formazan colour is commonly taken as a measure of viable cells.)

As for `C=C1C[C@@H]2CC[C@@]34C[C@H]5O[C@H]6[C@@H](O3)[C@H]3O[C@H](CC[C@@H]3O[C@H]6[C@H]5O4)CC(=O)C[C@@H]3[C@@H](OC)[C@@H](C[C@H](O)CN)O[C@H]3C[C@H]3O[C@@H](CC[C@@H]1O2)C[C@@H](C)C3=C` [Eribulin, 2-(3-Amino-2-hydroxypropyl)hexacosahydro-3-methoxy-26-methyl-20,27-bis(methylene)11,15-18,21-24,28-triepoxy-7,9-ethano-12,15-methano-9H,15H-furo(3,2-i)furo(2′,3′-5,6) pyrano(4,3-b)(1,4)dioxacyclopentacosin-5-(4H)-one], the “inhibition of tumor cell proliferation” value in the experiment with HS-578T cells is “inhibited tumor cell proliferation”; in the experiment with MDA-MB-436 cells, “inhibited tumor cell proliferation”; with MDA-MB-231 cells (300 nM CYC065 alone, 5 nM Eribulin alone or their combination, FIG. 2A) it was “inhibited tumor cell proliferation”. For the same compound, the “inhibition of cell proliferation, dose response” value in the experiment with MDA-MB-231 cells (Eribulin 0.1 nM-100 nM, CYC065 50 nM-1000 nM, FIGS. 1A, 1B) is reported as “inhibit proliferation in the nM range”.
